Reference: PubChem BioAssay (NCI)
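Growth conditions: 96-well plates. Treatment: test compound, 48 hours, 5 concentrations. Analysis: linear interpolation between bracketing concentrations; unreached endpoints set to highest concentration. GI50: concentration for 50% inhibition of growth. At the TGI there is no net growth.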

Assays:
Assay in all cases: inhibition of tumour cell growth, NCI panel, 48 h
NCI/ADR-RES ovarian = tested on: NCI/ADR-RES ovarian
NCI-H460 lung = tested on: NCI-H460 lung
SK-MEL-28 melanoma = tested on: SK-MEL-28 melanoma
UACC-257 melanoma = tested on: UACC-257 melanoma
MCF7 breast = tested on: MCF7 breast
SF-268 CNS = tested on: SF-268 CNS
OVCAR-8 ovarian = tested on: OVCAR-8 ovarian
K-562 leukemia = tested on: K-562 leukemia
HT29 colon = tested on: HT29 colon
SK-MEL-5 melanoma = tested on: SK-MEL-5 melanoma
TK-10 renal = tested on: TK-10 renal
HCT-15 colon = tested on: HCT-15 colon
HL-60(TB) leukemia = tested on: HL-60(TB) leukemia
UACC-62 melanoma = tested on: UACC-62 melanoma
A498 renal = tested on: A498 renal
SNB-19 CNS = tested on: SNB-19 CNS
SF-295 CNS = tested on: SF-295 CNS
SR leukemia = tested on: SR leukemia
OVCAR-3 ovarian = tested on: OVCAR-3 ovarian
A549 NSCLC = tested on: A549 NSCLC
M14 melanoma = tested on: M14 melanoma
SK-MEL-2 melanoma = tested on: SK-MEL-2 melanoma
PC-3 prostate = tested on: PC-3 prostate
DU-145 prostate = tested on: DU-145 prostate
BT-549 breast = tested on: BT-549 breast
HCT-116 colon = tested on: HCT-116 colon
HCC-2998 colon = tested on: HCC-2998 colon
SW-620 colon = tested on: SW-620 colon
ACHN renal = tested on: ACHN renal
NCI-H226 lung = tested on: NCI-H226 lung
T-47D breast = tested on: T-47D breast
SNB-75 CNS = tested on: SNB-75 CNS
NCI-H23 lung = tested on: NCI-H23 lung
UO-31 renal = tested on: UO-31 renal
MALME-3M melanoma = tested on: MALME-3M melanoma
KM12 colon = tested on: KM12 colon
SN12C renal = tested on: SN12C renal
MDA-MB-435 = tested on: MDA-MB-435
NCI-H522 lung = tested on: NCI-H522 lung
COLO 205 colon = tested on: COLO 205 colon
HS 578T breast = tested on: HS 578T breast
IGROV1 ovarian = tested on: IGROV1 ovarian
RPMI-8226 leukemia = tested on: RPMI-8226 leukemia
SF-539 CNS = tested on: SF-539 CNS
MOLT-4 leukemia = tested on: MOLT-4 leukemia
OVCAR-4 ovarian = tested on: OVCAR-4 ovarian
HOP-62 NSCLC = tested on: HOP-62 NSCLC
MDA-MB-231 breast = tested on: MDA-MB-231 breast
RXF 393 renal = tested on: RXF 393 renal
CAKI-1 renal = tested on: CAKI-1 renal
CCRF-CEM leukemia = tested on: CCRF-CEM leukemia
SK-OV-3 ovarian = tested on: SK-OV-3 ovarian
OVCAR-5 ovarian = tested on: OVCAR-5 ovarian
786-0 renal = tested on: 786-0 renal
U251 CNS = tested on: U251 CNS
HOP-92 NSCLC = tested on: HOP-92 NSCLC

Work on `O=C1Nc2ccccc2/C1=C\c1c[nH]c2ccc(Br)cc12` yielded a GI50 (NCI/ADR-RES ovarian) of 2.49 µM, a TGI (NCI/ADR-RES ovarian) of 7.04 µM and a GI50 (NCI-H460 lung) of 2.11 µM. For the same compound, the TGI (NCI-H460 lung) was 4.98 µM, the GI50 (SK-MEL-28 melanoma) was 4.16 µM and the TGI (SK-MEL-28 melanoma) was 20.9 µM. It also gave a GI50 (UACC-257 melanoma) of 2.91 µM, a TGI (UACC-257 melanoma) of 14.5 µM and a GI50 (MCF7 breast) of 2.43 µM. The TGI (MCF7 breast) was 11.2 µM, the GI50 (SF-268 CNS) was 3.3 µM and the TGI (SF-268 CNS) was 16.2 µM. The GI50 (OVCAR-8 ovarian) was 2.85 µM, the TGI (OVCAR-8 ovarian) was 10.4 µM and the GI50 (K-562 leukemia) was 3.26 µM. It also gave a TGI (K-562 leukemia) of 8 µM, a GI50 (HT29 colon) of 2.75 µM and a TGI (HT29 colon) of 6.56 µM. For the same compound, the GI50 (SK-MEL-5 melanoma) was 4.41 µM, the TGI (SK-MEL-5 melanoma) was 17.2 µM and the GI50 (TK-10 renal) was 3.99 µM. For the same compound, the TGI (TK-10 renal) was 9.5 µM, the GI50 (HCT-15 colon) was 2.12 µM and the TGI (HCT-15 colon) was 5.59 µM. For the same compound, the GI50 (HL-60(TB) leukemia) was 2.79 µM, the TGI (HL-60(TB) leukemia) was 7.88 µM and the GI50 (UACC-62 melanoma) was 1.71 µM. For the same compound, the TGI (UACC-62 melanoma) was 3.72 µM, the GI50 (A498 renal) was 1.88 µM and the TGI (A498 renal) was 6.31 µM. It also gave a GI50 (SNB-19 CNS) of 3.71 µM, a TGI (SNB-19 CNS) of 25.5 µM and a GI50 (SF-295 CNS) of 3.99 µM. The TGI (SF-295 CNS) was 21.6 µM, the GI50 (SR leukemia) was 2.59 µM and the TGI (SR leukemia) was 6.32 µM. For the same compound, the GI50 (OVCAR-3 ovarian) was 2.29 µM, the TGI (OVCAR-3 ovarian) was 5.58 µM and the GI50 (A549 NSCLC) was 2.26 µM. The TGI (A549 NSCLC) was 6.23 µM, the GI50 (M14 melanoma) was 1.67 µM and the TGI (M14 melanoma) was 3.68 µM. The GI50 (SK-MEL-2 melanoma) was 1.99 µM, the TGI (SK-MEL-2 melanoma) was 4.41 µM and the GI50 (PC-3 prostate) was 2.42 µM. The TGI (PC-3 prostate) was 10.3 µM, the GI50 (DU-145 prostate) was 3.23 µM and the TGI (DU-145 prostate) was 11 µM. The GI50 (BT-549 breast) was 4.26 µM, the TGI (BT-549 breast) was 19.5 µM and the GI50 (HCT-116 colon) was 1.61 µM. The TGI (HCT-116 colon) was 3.11 µM, the GI50 (HCC-2998 colon) was 1.86 µM and the TGI (HCC-2998 colon) was 3.45 µM. The GI50 (SW-620 colon) was 2.89 µM, the TGI (SW-620 colon) was 10.7 µM and the GI50 (ACHN renal) was 2.82 µM. It also gave a TGI (ACHN renal) of 10.1 µM, a GI50 (NCI-H226 lung) of 6.23 µM and a TGI (NCI-H226 lung) of 41.9 µM. It also gave a GI50 (T-47D breast) of 3.65 µM, a TGI (T-47D breast) of 30.3 µM and a GI50 (SNB-75 CNS) of 2.68 µM. For the same compound, the TGI (SNB-75 CNS) was 9.37 µM, the GI50 (NCI-H23 lung) was 1.92 µM and the TGI (NCI-H23 lung) was 5.61 µM. The GI50 (UO-31 renal) was 2.22 µM, the TGI (UO-31 renal) was 8.79 µM and the GI50 (MALME-3M melanoma) was 5.55 µM. It also gave a TGI (MALME-3M melanoma) of 25.1 µM, a GI50 (KM12 colon) of 0.633 µM and a TGI (KM12 colon) of 2.37 µM. The GI50 (SN12C renal) was 2.63 µM, the TGI (SN12C renal) was 7.6 µM and the GI50 (MDA-MB-435) was 2.44 µM. For the same compound, the TGI (MDA-MB-435) was 6.89 µM, the GI50 (NCI-H522 lung) was 1.83 µM and the TGI (NCI-H522 lung) was 3.77 µM. For the same compound, the GI50 (COLO 205 colon) was 1.77 µM, the TGI (COLO 205 colon) was 3.23 µM and the GI50 (HS 578T breast) was 2.2 µM. The TGI (HS 578T breast) was 8.33 µM, the GI50 (IGROV1 ovarian) was 2.57 µM and the TGI (IGROV1 ovarian) was 11.2 µM. It also gave a GI50 (RPMI-8226 leukemia) of 2.32 µM, a TGI (RPMI-8226 leukemia) of 7.93 µM and a GI50 (SF-539 CNS) of 4.77 µM. For the same compound, the TGI (SF-539 CNS) was 17.1 µM, the GI50 (MOLT-4 leukemia) was 2.76 µM and the TGI (MOLT-4 leukemia) was 8.6 µM. The GI50 (OVCAR-4 ovarian) was 2.7 µM, the TGI (OVCAR-4 ovarian) was 22.5 µM and the GI50 (HOP-62 NSCLC) was 3.5 µM. The TGI (HOP-62 NSCLC) was 13.3 µM, the GI50 (MDA-MB-231 breast) was 1.63 µM and the TGI (MDA-MB-231 breast) was 3.24 µM. The GI50 (RXF 393 renal) was 3.01 µM, the TGI (RXF 393 renal) was 8.72 µM and the GI50 (CAKI-1 renal) was 2.67 µM. For the same compound, the TGI (CAKI-1 renal) was 13.6 µM, the GI50 (CCRF-CEM leukemia) was 3.18 µM and the TGI (CCRF-CEM leukemia) was 10.5 µM. For the same compound, the GI50 (SK-OV-3 ovarian) was 3.63 µM, the TGI (SK-OV-3 ovarian) was 15 µM and the GI50 (OVCAR-5 ovarian) was 2.26 µM. The TGI (OVCAR-5 ovarian) was 5.86 µM, the GI50 (786-0 renal) was 3.82 µM and the TGI (786-0 renal) was 14.7 µM. The GI50 (U251 CNS) was 2.39 µM, the TGI (U251 CNS) was 7.09 µM and the GI50 (HOP-92 NSCLC) was 0.573 µM. The TGI (HOP-92 NSCLC) was 3.3 µM.
